Test results taken from ChEMBL document CHEMBL1134427, “Synthesis and photophysical properties of new fluorinated benzo[c]xanthene dyes as intracellular pH indicators” (Bioorg Med Chem Lett, 2001).

Test: pKa value by using fluorescence emission spectra
Type: physicochemical

pKa | SMILES
6.4 | CN(C)c1ccc2c(-c3cc(C(=O)O)ccc3C(=O)O)c3ccc4c(F)c(=O)ccc4c3oc2c1
7.2 | CN(C)c1ccc2c(-c3cc(C(=O)O)ccc3C(=O)O)c3cc(F)c4cc(=O)ccc4c3oc2c1
7.5 | CN(C)c1ccc2c(-c3cc(C(=O)O)ccc3C(=O)O)c3ccc4cc(=O)ccc4c3oc2c1
